The IC50 is the point on the concentration scale where inhibition reaches its midpoint.

In this test the target is T1, N-terminally GST-tagged human full length recombinant Mps-1 kinase (Homo sapiens, UniProt P33981).
T1 construct: N-terminally GST-tagged human full length recombinant Mps-1 kinase; purchased Invitrogen, Karslruhe, Germany PV4071
T1 sequence (P33981 1-857): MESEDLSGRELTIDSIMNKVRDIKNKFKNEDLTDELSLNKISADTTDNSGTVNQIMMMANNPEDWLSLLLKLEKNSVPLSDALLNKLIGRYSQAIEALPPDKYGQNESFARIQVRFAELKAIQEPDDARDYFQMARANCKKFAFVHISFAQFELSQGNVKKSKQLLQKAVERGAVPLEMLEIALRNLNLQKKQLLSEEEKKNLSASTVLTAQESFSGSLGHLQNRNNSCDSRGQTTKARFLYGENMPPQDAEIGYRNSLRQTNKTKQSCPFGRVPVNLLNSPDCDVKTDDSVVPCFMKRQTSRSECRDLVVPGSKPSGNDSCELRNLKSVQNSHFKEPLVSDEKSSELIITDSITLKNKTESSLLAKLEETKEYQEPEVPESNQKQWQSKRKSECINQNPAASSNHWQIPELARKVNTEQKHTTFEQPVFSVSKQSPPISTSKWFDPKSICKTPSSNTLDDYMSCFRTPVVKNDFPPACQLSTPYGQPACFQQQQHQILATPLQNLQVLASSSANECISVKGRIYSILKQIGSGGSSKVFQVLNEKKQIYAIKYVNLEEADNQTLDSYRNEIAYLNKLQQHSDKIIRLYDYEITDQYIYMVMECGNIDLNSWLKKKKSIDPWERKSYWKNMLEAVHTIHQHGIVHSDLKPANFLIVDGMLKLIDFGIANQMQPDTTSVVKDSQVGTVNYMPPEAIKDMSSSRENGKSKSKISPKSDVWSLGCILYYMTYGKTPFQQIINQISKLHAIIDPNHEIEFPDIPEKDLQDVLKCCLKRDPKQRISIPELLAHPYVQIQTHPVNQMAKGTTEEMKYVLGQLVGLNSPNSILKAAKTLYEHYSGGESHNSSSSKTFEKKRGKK
The test can be described thus: Mps-1 kinase assay (TR-FRET). Type of test: biochemical. The note with it: Mps1 IC50 [nM], 10 μM ATP, 1 μM peptide substrate, 60 min at 22° C. Put shortly:
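GST-Mps-1 (full length, N-term tag) ~1 nM final, linear-range adjusted per lot; biotinylated peptide substrate. Detection: Eu-anti-pSer/Thr donor → SA-XLent acceptor TR-FRET, 1 h, 22° C. Inhibition of kinase activity.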
For orientation: Time-resolved FRET reads energy transfer from a long-lived donor to a nearby acceptor.
On to `COc1cc(C(=O)NC2CC2)ccc1-c1cnc2c(NCC(C)(C)O)cc(-c3ccc(F)cc3)nn12` [Example 49, N-cyclopropyl-4-{6-(4-fluorophenyl)-8-[(2-hydroxy-2-methylpropyl)amino]imidazo[1,2-b]pyridazin-3-yl}-3-methoxybenzamide], for which the IC50 was 11.9 nM. Take `Cc1cc(-c2cnc3c(NCCS(C)(=O)=O)cc(Oc4cccc(F)c4)nn23)ccc1C(=O)NC1CC1` [Example 313, N-cyclopropyl-4-[6-(3-fluorophenoxy)-8-{[2-(methylsulfonyl)ethyl]amino}imidazo[1,2-b]pyridazin-3-yl]-2-methyl-benzamide]: the IC50 was determined as 0.1 nM. As for `COc1cc(C(=O)NC2CC2)ccc1-c1cnc2c(NCCC(F)(F)F)cc(-c3ccnn3C)nn12` [Example 53, N-cyclopropyl-3-methoxy-4-{6-(1-methyl-1H-pyrazol-5-yl)-8-[(3,3,3-trifluoropropyl)amino]imidazo[1,2-b]pyridazin-3-yl}benzamide], the IC50 is 7.1 nM. On to `Cc1cc(-c2cnc3c(NCCC(F)(F)F)cc(SC4CCCCC4)nn23)ccc1C(=O)NC1CC1` [Example 171, 4-{6-(cyclohexylsulfanyl)-8-[(3,3,3-trifluoropropyl)amino]imidazo [1,2-b]pyridazin-3-yl}-N-cyclopropyl-2-methylbenzamide], for which the IC50 was 0.8 nM.

Consider `Cc1cc(-c2cnc3c(NCC(C)(C)O)cc(Oc4cnn(C)c4)nn23)ccc1C(=O)NC1CC1` [Example 321, N-cyclopropyl-4-{8-[(2-hydroxy-2-methylpropyl)amino]-6-[(1-methyl-1H-pyrazol-4-yl)oxy]imidazo[1,2-b]pyridazin-3-yl}-2-methylbenzamide], for which the IC50 was determined as 0.6 nM. With `Cc1ccc(F)cc1Sc1cc(NCCC(F)(F)F)c2ncc(-c3ccc(C(=O)NC4CC4)c(C)c3)n2n1` [Example 269, N-cyclopropyl-4-{6-[(5-fluoro-2-methylphenyl)sulfanyl]-8-[(3,3,3-trifluoropropyl)amino]imidazo[1,2-b]pyridazin-3-yl}-2-methylbenzamide], the IC50 is 0.3 nM. Take `Cc1cc(-c2cnc3c(NCCC(F)(F)F)cc(Oc4cccc(F)c4F)nn23)ccc1C(=O)NC1CC1` [Example 258, N-cyclopropyl-4-{6-(2,3-difluorophenoxy)-8-[(3,3,3-trifluoropropyl)amino]imidazo[1,2-b]pyridazin-3-yl}-2-methylbenzamide]: the IC50 was found to be 0.2 nM. As for `CNC(=O)c1cccc(-c2cc(NCC(C)C)c3ncc(-c4ccc(C(=O)NC5CC5)cc4)n3n2)c1` [Example 119, 3-{3-[4-(Cyclopropylcarbamoyl)phenyl]-8-[(2-methylpropyl)amino]imidazo[1,2-b]pyridazin-6-yl}-N-methylbenzamide], the IC50 is less than 1 nM. Regarding `Cc1cc(-c2cnc3c(NCCC(C)(C)O)cc(-c4ccccc4CO)nn23)ccc1C(=O)NC1CC1` [Example 341, N-cyclopropyl-4-{8-[(3-hydroxy-3-methylbutyl)amino]-6-[2-(hydroxy-methyl)phenyl]imidazo[1,2-b]pyridazin-3-yl}-2-methylbenzamide], the IC50 was determined as 10.6 nM.

Regarding `CSc1cc(NCCC(F)(F)F)c2ncc(-c3ccc(C(=O)NC4CC4)c(C)c3)n2n1` [Example 203, N-cyclopropyl-2-methyl-4-{6-(methylsulfanyl)-8-[(3,3,3-trifluoropropyl)amino]imidazo[1,2-b]pyridazin-3-yl}benzamide], the IC50 amounted to 1.4 nM. The value for `Cc1cc(-c2cnc3c(NCC(C)(C)O)cc(-c4cnn(C)c4)nn23)ccc1C(=O)NC1CC1` [Example 154, N-cyclopropyl-4-{8-[(2-hydroxy-2-methylpropyl)amino]-6-(1-methyl-1H-pyrazol-4-yl)imidazo[1,2-b]pyridazin-3-yl}-2-methylbenzamide] was 25 nM. With `CC(C)CNc1cc(Cl)nn2c(-c3ccc4c(NC5CC5)noc4c3)cnc12` [Example 183, 6-Chloro-3-[3-(cyclopropylamino)-1,2-benzoxazol-6-yl]-N-(2-methylpropyl)imidazo[1,2-b] pyridazin-8-amine] the figure was 290 nM; with `Cc1cccc(Nc2cc(NCC(C)(C)O)c3ncc(-c4ccc(C(=O)NC5CC5)c(C)c4)n3n2)c1` [Example 308, N-cyclopropyl-4-{8-[(2-hydroxy-2-methylpropyl)amino]-6-[(3-methylphenyl)amino]imidazo[1,2-b]pyridazin-3-yl}-2-methylbenzamide], 1 nM. As to `Cn1nccc1-c1cc(NCCC(F)(F)F)c2ncc(-c3ccc(C(=S)NC4CC4)cc3)n2n1` [Example 45, N-cyclopropyl-4-{6-(1-methyl-1H-pyrazol-5-yl)-8-[(3,3,3-trifluoropropyl)amino]imidazo[1,2-b]pyridazin-3-yl}benzenecarbothioamide], the IC50 amounted to 1.1 nM. For the molecule `Cc1cc(-c2cnc3c(NCC(C)(C)O)cc(Oc4ccc5ncccc5c4)nn23)ccc1C(=O)NC1CC1` [Example 168, N-cyclopropyl-4-{8-[(2-hydroxy-2-methylpropyl)amino]-6-(quinolin-6-yloxy)imidazo[1,2-b]pyridazin-3-yl}-2-methylbenzamide], the IC50 came out at 0.3 nM. In the case of `Cc1cc(-c2cnc3c(NCCC(F)(F)F)cc(Nc4ccc(F)nc4)nn23)ccc1C(=O)NC1CC1` [Example 440, N-cyclopropyl-4-{6-[(6-fluoropyridin-3-yl)-amino]-8-[(3,3,3-trifluoropropyl)amino]imidazo[1,2-b]pyridazin-3-yl}-2-methylbenzamide], the IC50 is 0.1 nM. The value for `CNC(=O)c1ccc(-c2cnc3c(NCCN4CCOCC4)cc(Oc4ccc(F)c(F)c4)nn23)cc1C` [Example 562, 4-[6-(3,4-difluorophenoxy)-8-{[2-(morpholin-4-yl)ethyl]amino}imidazo[1,2-b]pyridazin-3-yl]-N,2-dimethylbenzamide] was 2.7 nM.

`CC=C(C)c1cc(NCC(C)(C)O)c2ncc(-c3ccc(-c4cnc(C5CC5)[nH]4)cc3)n2n1` (mixture of isomers) [Example 1, 1-({6-[(2E/Z)-But-2-en-2-yl]-3-[4-(2-cyclopropyl-1H-imidazol-5-yl)phenyl]imidazo[1,2-b]pyridazin-8-yl}amino)-2-methylpropan-2-ol]: the IC50 is 61.1 nM.

For the molecule `Cc1cc(-c2cnc3c(NCC4CCN(C)CC4)cc(Oc4cccc(F)c4)nn23)ccc1C(=O)NC1CC1` [Example 311, N-cyclopropyl-4-[6-(3-fluorophenoxy)-8-{[(1-methylpiperidin-4-yl)methyl]amino}imidazo[1,2-b]pyridazin-3-yl]-2-methyl-benzamide], the IC50 stood at 0.2 nM.

As for `Cc1cc(-c2cnc3c(NCC4CNC4)cc(Oc4cncc(F)c4)nn23)ccc1C(=O)NC1CC1` [Example 544, 4-{8-[(azetidin-3-ylmethyl)amino]-6-[(5-fluoropyridin-3-yl)oxy]imidazo[1,2-b]pyridazin-3-yl}-N-cyclopropyl-2-methylbenzamide], the IC50 amounted to 1.1 nM. The value for `CC(C)CNc1cc(-c2ccc(-c3ccccc3)cc2)nn2c(-c3ccc(C(=O)NC4CC4)cc3)cnc12` [Example 130, 4-{6-(Biphenyl-4-yl)-8-[(2-methylpropyl)amino]imidazo[1,2-b]pyridazin-3-yl}-N-cyclopropylbenzamide] was 5.9 nM. The value for `Cc1cccc(Oc2cc(NCC(C)(C)O)c3ncc(-c4ccc(C(=O)NC5CC5)c(C)c4)n3n2)c1` [Example 97, N-cyclopropyl-4-{8-[(2-hydroxy-2-methylpropyl)amino]-6-(3-methylphenoxy)imidazo[1,2-b]pyridazin-3-yl}-2-methylbenzamide] was 0.2 nM; that for `Cc1cc(-c2cnc3c(NCC(C)(C)O)cc(-c4cccn4C)nn23)ccc1C(=O)NC1CC1` [Example 161, N-cyclopropyl-4-{8-[(2-hydroxy-2-methylpropyl)amino]-6-(1-methyl-1H-pyrrol-2-yl)imidazo[1,2-b]pyridazin-3-yl}-2-methylbenzamide] was 6.2 nM. Take `CNC(=O)c1ccc(-c2cnc3c(NCC4CCOCC4)cc(Oc4cccc(F)c4)nn23)cc1C` [Example 569, 4-{6-(3-fluorophenoxy)-8-[(tetrahydro-2H-pyran-4-ylmethyl)amino]imidazo[1,2-b]pyridazin-3-yl}-N,2-dimethylbenzamide]: the IC50 was less than 1 nM.

For `Cc1cc(-c2cnc3c(NCC4CCS(=O)(=O)CC4)cc(Oc4ccc(F)cc4)nn23)ccc1C(=O)NC1CC1` [Example 295A, N-cyclopropyl-4-[8-{[(1,1-dioxidotetrahydro-2H-thiopyran-4-yl)methyl]amino}-6-(4-fluorophenoxy)imidazo[1,2-b]pyridazin-3-yl]-2-methylbenzamide], the IC50 was 0.4 nM.

(Values after patent publication US9255100B2 (BAYER INTELLECTUAL PROPERTY GMBH, priority 2010, dated 2016).)
